From patent US10106556B2, “Heterocyclic compound” (TAKEDA PHARMACEUTICAL COMPANY LIMITED, priority 2015, dated 2018) come the findings set out here.

SMILES strings stand for the structures.

As usually defined, the inhibition is the drop in the measured response relative to a control, in per cent.

The target in the assay is T1, His-hMAGL (recombinant polyhistidine tagged human MAGL protein) (Homo sapiens, UniProt Q99685).
T1 construct: made in house; host or cells: E. coli BL21(DE3)
T1 sequence (Q99685 1-303): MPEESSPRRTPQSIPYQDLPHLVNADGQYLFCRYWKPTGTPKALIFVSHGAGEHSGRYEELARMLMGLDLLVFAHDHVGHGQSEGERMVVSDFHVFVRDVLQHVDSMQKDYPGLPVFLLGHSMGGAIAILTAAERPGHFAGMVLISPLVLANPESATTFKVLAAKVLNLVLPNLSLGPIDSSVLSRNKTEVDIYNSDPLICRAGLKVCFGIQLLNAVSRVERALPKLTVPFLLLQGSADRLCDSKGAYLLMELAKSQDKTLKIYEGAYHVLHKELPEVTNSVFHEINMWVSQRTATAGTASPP
Description: Measurement of MAGL inhibitory activity (arachidonic acid production from 2-arachidonylglycerol, RapidFire-mass spectrometry). The following applies: MAGL inhibitory rate at 10 μM test compound; 60 min preincubation with His-hMAGL, 2-arachidonylglycerol substrate, 10 min reaction at room temperature. Type of assay: biochemical. How it is done: Furthermore, acetonitrile (50 μL) containing 3 μM arachidonic acid-d8 (Cayman Chemical Company) was added and the mixture was stirred.
The amount of arachidonic acid in the obtained enzyme reaction mixture was calculated by measuring by RapidFire-mass spectrometry and correcting by the amount of arachidonic acid-d8. High Throughput online solid phase extraction was performed using RapidFire 300™ system (Agilent Technologies, Inc.). Samples were loaded on SPE C4 cartridge (Agilent Technologies, Inc.) and desalted with 0.2 (v/v) % acetic acid (Wako Pure Chemical Industries, Ltd.) in ultrapure water/acetonitrile (70/30, v/v) at a flow rate of 1.5 mL/min, eluted at a flow rate of 0.5 mL/min with 0.2 (v/v) % acetic acid dissolved in acetonitrile/ultrapure water (90/10, v/v), and injected into the mass spectrometry part. The injection needle was washed with ultrapure water (500 millisecond) and acetonitrile (500 millisecond) to minimize carry-over. […] The RapidFire300 system was controlled by RapidFire UI software version 3.6 (Agilent Technologies, Inc.).
The mass spectrometry of the resultant product was performed using API4000™ triple quadrupole mass spectrometer (AB SCIEX) equipped with an electrospray ion sauce (TurboIon Spray™) in a negative selected reaction monitoring (SRM) mode. The conditions of SRM are shown below. The parameters of the instrument were optimized as follows: capillary temperature 600° C., ion spray voltage −4.5 kV, collision gas 8, curtain gas 15 psi, ion source gas 1 60 psi, ion source gas 2 60 psi. The mass spectrometer was controlled by Analyst™ software version 1.5.1 (AB SCIEX). The peak area integration was analyzed using RapidFire integrator software version 3.6 (Agilent Technologies, Inc.).
MAGL inhibitory rate (%) was calculated according to the following calculation formula. (1−(arachidonic acid production amount of test compound addition group−arachidonic acid production amount of enzyme−free group)÷(arachidonic acid production amount of test compound-free group−arachidonic acid production amount of enzyme-free group))×100
`O=C1COc2ccc(C(=O)N3CCC(COc4ccc(Cl)nc4)CC3)cc2N1` [Example 44, 6-((4-(((6-chloropyridin-3-yl)oxy)methyl)piperidin-1-yl)carbonyl)-2H-1,4-benzoxazin-3(4H)-one]: the inhibition at 10 µM is 90%.
`O=C1COc2ccc(C(=O)N3CCC(COc4cc(Cl)cc(Cl)c4)CC3)cc2N1` [Example 45, 6-((4-((3,5-dichlorophenoxy)methyl)piperidin-1-yl)carbonyl)-2H-1,4-benzoxazin-3(4H)-one]: the inhibition at 10 µM was found to be 98%.
For the molecule `O=C1COc2ccc(C(=O)N3CCC(COc4ccnc(Cl)c4Cl)CC3)cc2N1` [Example 46, 6-((4-(((2,3-dichloropyridin-4-yl)oxy)methyl)piperidin-1-yl)carbonyl)-2H-1,4-benzoxazin-3(4H)-one], the inhibition at 10 µM was 98%.
As for `O=C1COc2ccc(C(=O)N3CCC(COc4cc(Cl)ncc4Cl)CC3)cc2N1` [Example 47, 6-((4-(((2,5-dichloropyridin-4-yl)oxy)methyl)piperidin-1-yl)carbonyl)-2H-1,4-benzoxazin-3(4H)-one], the inhibition at 10 µM was 98%.
With `N#Cc1cccc(OCC2CCN(C(=O)c3ccc4c(c3)NC(=O)CO4)CC2)c1` [Example 48, 3-((1-((3-oxo-3,4-dihydro-2H-1,4-benzoxazin-6-yl)carbonyl)piperidin-4-yl)methoxy)benzonitrile], the inhibition at 10 µM was determined as 89%.
For `N#Cc1ccc(OCC2CCN(C(=O)c3ccc4c(c3)NC(=O)CO4)CC2)cc1` [Example 49, 4-((1-((3-oxo-3,4-dihydro-2H-1,4-benzoxazin-6-yl)carbonyl)piperidin-4-yl)methoxy)benzonitrile], the inhibition at 10 µM came to 92%.
Regarding `N#Cc1ccc(OCC2CCN(C(=O)c3ccc4c(c3)NC(=O)CO4)CC2)c(Cl)c1` [Example 52, 3-chloro-4-((1-((3-oxo-3,4-dihydro-2H-1,4-benzoxazin-6-yl)carbonyl)piperidin-4-yl)methoxy)benzonitrile], the inhibition at 10 µM stood at 102%.
Take `O=C1COc2ccc(C(=O)N3CCC(COc4ccccc4OC(F)(F)F)CC3)cc2N1` [Example 53, 6-((4-((2-(trifluoromethoxy)phenoxy)methyl)piperidin-1-yl)carbonyl)-2H-1,4-benzoxazin-3(4H)-one]: the inhibition at 10 µM was 96%.
As for `O=C1COc2ccc(C(=O)N3CCC(COc4cccc(OC(F)(F)F)c4)CC3)cc2N1` [Example 54, 6-((4-((3-(trifluoromethoxy)phenoxy)methyl)piperidin-1-yl)carbonyl)-2H-1,4-benzoxazin-3(4H)-one], the inhibition at 10 µM was 98%.
For the molecule `O=C1COc2ccc(C(=O)N3CCC(COc4ccc(OC(F)(F)F)cc4)CC3)cc2N1` [Example 55, 6-((4-((4-(trifluoromethoxy)phenoxy)methyl)piperidin-1-yl)carbonyl)-2H-1,4-benzoxazin-3(4H)-one], the inhibition at 10 µM came to 96%.
As for `O=C1COc2ccc(C(=O)N3CCC(COc4cccc(F)c4Cl)CC3)cc2N1` [Example 56, 6-((4-((2-chloro-3-fluorophenoxy)methyl)piperidin-1-yl)carbonyl)-2H-1,4-benzoxazin-3(4H)-one], the inhibition at 10 µM was 101%.
As for `O=C1COc2ccc(C(=O)N3CCC(COc4cccc(C(F)(F)F)c4)CC3)cc2N1` [Example 57, 6-((4-((3-(trifluoromethyl)phenoxy)methyl)piperidin-1-yl)carbonyl)-2H-1,4-benzoxazin-3(4H)-one], the inhibition at 10 µM came out at 99%.
For the molecule `O=C1COc2ccc(C(=O)N3CCC(COc4ccc(C(F)(F)F)cc4)CC3)cc2N1` [Example 58, 6-((4-((4-(trifluoromethyl)phenoxy)methyl)piperidin-1-yl)carbonyl)-2H-1,4-benzoxazin-3(4H)-one], the inhibition at 10 µM turned out to be 100%.
On to `O=C1COc2ccc(C(=O)N3CCC(COc4cccc5ccccc45)CC3)cc2N1` [Example 59, 6-((4-((1-naphthyloxy)methyl)piperidin-1-yl)carbonyl)-2H-1,4-benzoxazin-3(4H)-one], for which the inhibition at 10 µM turned out to be 102%.
For `O=C1COc2ccc(C(=O)N3CCC(COc4ccc5ccccc5c4)CC3)cc2N1` [Example 60, 6-((4-((2-naphthyloxy)methyl)piperidin-1-yl)carbonyl)-2H-1,4-benzoxazin-3(4H)-one], the inhibition at 10 µM is 92%.
Next, `O=C1COc2ccc(C(=O)N3CCC(COc4ccc5[nH]ncc5c4)CC3)cc2N1` [Example 61, 6-((4-((1H-indazol-5-yloxy)methyl)piperidin-1-yl)carbonyl)-2H-1,4-benzoxazin-3(4H)-one]: 94%; `O=C1COc2ccc(C(=O)N3CCC(COc4nc5ccccc5s4)CC3)cc2N1` [Example 62, 6-((4-((1,3-benzothiazol-2-yloxy)methyl)piperidin-1-yl)carbonyl)-2H-1,4-benzoxazin-3(4H)-one]: 86%.
Take `CC(=O)n1ncc2c(OCC3CCN(C(=O)c4ccc5c(c4)NC(=O)CO5)CC3)cccc21` [Example 63, 6-((4-(((1-acetyl-1H-indazol-4-yl)oxy)methyl)piperidin-1-yl)carbonyl)-2H-1,4-benzoxazin-3(4H)-one]: the inhibition at 10 µM was found to be 93%.
Next, `O=C1COc2ccc(C(=O)N3CCC(COc4cccc5[nH]ncc45)CC3)cc2N1` [Example 64, 6-((4-((1H-indazol-4-yloxy)methyl)piperidin-1-yl)carbonyl)-2H-1,4-benzoxazin-3(4H)-one]: 101%.
Regarding `O=C1COc2ccc(C(=O)N3CCC(COc4ccccc4C4CC4)CC3)cc2N1` [Example 65, 6-((4-((2-cyclopropylphenoxy)methyl)piperidin-1-yl)carbonyl)-2H-1,4-benzoxazin-3(4H)-one], the inhibition at 10 µM is 96%.
Next, `O=C1COc2cc(F)c(C(=O)N3CCC(COc4ccc(F)cc4Cl)CC3)cc2N1` [Example 66, 6-((4-((2-chloro-4-fluorophenoxy)methyl)piperidin-1-yl)carbonyl)-7-fluoro-2H-1,4-benzoxazin-3(4H)-one]: 104%; `N#Cc1cc(C(F)(F)F)ccc1OCC1CCN(C(=O)c2ccc3c(c2)NC(=O)CO3)CC1` [Example 67]: 101%; `N#Cc1cc(C(F)(F)F)ccc1OCC1CCN(C(=O)c2cc3c(cc2F)OCC(=O)N3)CC1` [Example 68, 2-((1-((7-fluoro-3-oxo-3,4-dihydro-2H-1,4-benzoxazin-6-yl)carbonyl)piperidin-4-yl)methoxy)-5-(trifluoromethyl)benzonitrile]: 96%.
For `N#Cc1cc(C(F)(F)F)ccc1OCC1CCN(C(=O)c2ccc3c(c2)NC(=O)C3)CC1` [Example 69, 2-((1-((2-oxo-2,3-dihydro-1H-indol-6-yl)carbonyl)piperidin-4-yl)methoxy)-5-(trifluoromethyl)benzonitrile], the inhibition at 10 µM came to 99%.
Consider `N#Cc1ccc(OCC2CCN(C(=O)c3cc4c(cc3F)OCC(=O)N4)CC2)c(Cl)c1` [Example 70, 3-chloro-4-((1-((7-fluoro-3-oxo-3,4-dihydro-2H-1,4-benzoxazin-6-yl)carbonyl)piperidin-4-yl)methoxy)benzonitrile], for which the inhibition at 10 µM was 100%.
For the molecule `O=C1COc2cc(F)c(C(=O)N3CCC(COc4ccc(Cl)nc4Cl)CC3)cc2N1` [Example 71, 6-((4-(((2,6-dichloropyridin-3-yl)oxy)methyl)piperidin-1-yl)carbonyl)-7-fluoro-2H-1,4-benzoxazin-3(4H)-one], the inhibition at 10 µM was determined as 100%.
Take `N#Cc1cc(Cl)ccc1OCC1CCN(C(=O)c2cc3c(cc2F)OCC(=O)N3)CC1` [Example 72, 5-chloro-2-((1-((7-fluoro-3-oxo-3,4-dihydro-2H-1,4-benzoxazin-6-yl)carbonyl)piperidin-4-yl)methoxy)benzonitrile]: the inhibition at 10 µM came out at 100%.
Consider `O=C1COc2cc(F)c(C(=O)N3CCC(O)(COc4ccc(F)cc4Cl)CC3)cc2N1` [Example 73, 6-((4-((2-chloro-4-fluorophenoxy)methyl)-4-hydroxypiperidin-1-yl)carbonyl)-7-fluoro-2H-1,4-benzoxazin-3(4H)-one], for which the inhibition at 10 µM turned out to be 102%.
`O=C1COc2cc(F)c(C(=O)N3CCC(O)(COc4ccc(Cl)cc4Cl)CC3)cc2N1` [Example 74, 6-((4-((2,4-dichlorophenoxy)methyl)-4-hydroxypiperidin-1-yl)carbonyl)-7-fluoro-2H-1,4-benzoxazin-3(4H)-one]: the inhibition at 10 µM was 102%.
